According to patent publication US8354401B2, “Oxazolidinone amide aromatic compounds for supressing MMP-9 production” (Mitsubishi Tanabe Pharma Corporation, priority 2008, dated 2013):

Key:
[1] = test system: proMMP-9 production by human TNFα stimulated THP-1 cell; assay: Action of human TNFα stimulated THP-1 cell on proMMP-9 production (ELISA of culture supernatant); assay type: cell-based; details: THP-1 cells, human TNFα 10 ng/mL, 24 hr; IC50 from 10, 100 and 1,000 nmol/L; read-out: Experimental Example 1 proMMP-9 production suppression (IC50)
Description: Action of Human TNFα Stimulated THP-1 Cell on proMMP-9 Production
(§1) THP-1 cell (human monocytic leukemia cell line) was adjusted to 1×10^7 cells/mL in a culture medium (10% fetal bovine serum/RPMI1640 medium), and dispensed to a 96 well multiplate. This was equilibrated under the conditions of 37° C./5% CO2, and a culture medium containing human TNFα (final concentration 10 ng/mL) and a test compound was added thereto. After incubation under the conditions of 37° C./5% CO2 for 24 hr, the culture medium was centrifugated and the culture supernatant was collected, which was subjected to the following measurement.
Quantification of proMMP-9 in Culture Supernatant
The proMMP-9 concentration of the collected culture supernatant was quantified using a commercially available measurement reagent (manufactured by GE Healthcare, MMP-9, Human, Biotrak ELISA System).
Calculation of proMMP-9 Suppression Rate
The proMMP-9 suppression rate of the test compound was calculated from the following formula: % suppression=100−((Test−Min)/(Max−Min)×100) wherein Max is proMMP-9 concentration of culture supernatant induced by stimulation with human TNFα, without addition of a test compound (added with solvent alone) • Min is proMMP-9 concentration of culture supernatant without addition of a test compound (added with solvent alone) and without stimulation with human TNFα, and • Test is proMMP-9 concentration of culture supernatant induced by stimulation with human TNFα when a test compound is added.
Furthermore, the concentration of the test compound necessary for suppressing proMMP-9 production by human TNFα stimulated THP-1 cell by 50% (IC50 value) was calculated from 3 points of proMMP-9 suppression rate at test compound concentrations of 10, 100 and 1,000 nmol/L.

[2] = test system: proMMP-2 production by THP-1 cell; assay: Action of THP-1 cell on hemostatic type proMMP-2 production (ELISA of culture supernatant); assay type: cell-based, human; details: THP-1 cells, 24 hr
Description: Action of THP-1 Cell on Hemostatic Type proMMP-2 Production
as §1, with “containing” for “containing human TNFα (final concentration 10 ng/mL) and”
Quantification of proMMP-2 in Culture Supernatant
The proMMP-2 concentration of the collected culture supernatant was quantified using a commercially available measurement reagent (manufactured by GE Healthcare, MMP-2, Human, Biotrak ELISA System).
Calculation of proMMP-2 Suppression Rate
The proMMP-2 suppression rate of the test compound was calculated from the following formula: % suppress=100−((Test/Cont)×100). wherein Cont is proMMP-2 concentration of culture supernatant without addition of a test compound (added with solvent alone) and Test is proMMP-2 concentration of culture supernatant with addition of a test compound.

[3] = test system: rat monoiodoacetic acid-induced osteoarthritis model; assay: Suppressive action on articular joints injury of rat monoiodoacetic acid-induced osteoarthritis model; assay type: in vivo; details: LEW rat
Description: Suppressive Action on Articular Joints Injury of Rat Monoiodoacetic Acid-Induced Osteoarthritis Model
Monoiodoacetic acid solution (0.3 mg/25 μL) was injected into the right hindpaw knee joint cavity of anesthetized rats (LEW, male, 7-week-old). […] On day 7, right hindpaw knee joint was taken from euthanized rats, and fixed with 10% neutral formalin solution. A pathology specimen of knee joint was prepared, stained with Hematoxylin Eosin and Safranine O, and the state of joint cartilage injury was scored under microscopic observation. For articular joint injury scores, changes in each pathological finding in medial condyle of femur and medial condyle of tibia (cartilage surface tuberosity, erosion/ulcer/fibrillation, chondrocyte disorganization/disappearance/hypertrophy, reduction of Safranine staining) were divided into mild, moderate and severe according to the method of Kobayashi et al. (Kobayashi K et al. J. Vet. Med. Sci. 65, 1195 1199 2003), and indicated in the scores of 1, 2 and 3 and totaled. Furthermore, an average of the score of medial condyle of femur and that of medial condyle of tibia was determined and used as an articular joint injury score.

[4] = test system: rat adjuvant induced arthritis model; assay: Suppressive action on hindpaw edema of rat adjuvant induced arthritis model; assay type: in vivo; details: LEW rat, difference of hindpaw volume day 15 vs day 21, in mL (unit assumed)
Description: Suppressive Action on Hindpaw Edema of Rat Adjuvant Induced Arthritis Model
Anesthetized rats (LEW, male, 6-week-old) were immunized with M. Butyricum (5 mg/mL) at a dose of 0.1 mL/body by subcutaneous administration from the tail root. […] The test compound was orally administered once a day from immediately after allocation on day 15 to day 20 at doses of 3 and 30 mg/kg, and the hindpaw volume was measured again on day 21. The amount of hindpaw edema was the difference in the amount between hindpaw volume on day 15 and that on day 21.

[5] = test system: rat dinitrobenzene-induced colitis model; assay: Suppressive action on large intestine weight increase of rat dinitrobenzene-induced colitis model; assay type: in vivo; details: Wistar rat, 30 mg/kg oral once a day to day 7, measured day 8
Description: Suppressive Action on Large Intestine Weight Increase of Rat Dinitrobenzene-Induced Colitis Model
A dinitrobenzene solution (30 mg/0.1 mL) was injected into the large intestine of anesthetized rats (Wistar, male, 6-week-old). A test compound was orally administered once a day from the previous day of the dinitrobenzene injection to day 7 at a dose of 30 mg/kg. On day 8, the large intestine was isolated from euthanized rats, and the wet weight thereof was measured. The large intestine weight was amended to the weight per 100 g body weight of the rats on day 8.

[6] = 10 mg/kg oral once a day to day 6, scored day 7
[7] = 3 mg/kg oral once a day to day 6, scored day 7

IC50 [1] [nM]	Structure (SMILES)	Experimental Example 2 proMMP-2 production suppression (% suppression, 10 μM) [2] [%]	other results
59	Cc1ccc(N2CCN(C(=O)c3ccc(N4CCOC4=O)cc3C)CC2)c(C)c1 [Example 6, 3-{4-[4-(2,4-dimethylphenyl)piperazine-1-carbonyl]-3-methylphenyl}oxazolidin-2-one]	12.6	–
48	Cc1ccc(N2CCN(C(=O)c3ccc(N4CCOC4=O)cc3)CC2)c(C)c1 [Example 8, 3-{4-[4-(2,4-dimethylphenyl)piperazine-1-carbonyl]phenyl}oxazolidin-2-one]	11.6	articular joint injury score of compound administration group [3, 7]: 4.4 ± 0.5; hindpaw edema volume ([4]; 3 mg/kg oral once a day day 15 to day 20): 0.27 ± 0.17; hindpaw edema volume ([4]; 30 mg/kg oral once a day day 15 to day 20): 0.20 ± 0.18; large intestine weight (g/100 g body weight) [5]: 0.457 ± 0.031 g/100 g body weight
40	Cc1ccc(N2CCN(C(=O)c3ccc(N4CCOC4=O)cc3S(C)(=O)=O)CC2)c(C)c1 [Example 11, 3-{4-[4-(2,4-dimethylphenyl)piperazine-1-carbonyl]-3-methanesulfonylphenyl}oxazolidin-2-one]	12.4	–

The remaining lines, values behind:

Structure (SMILES)	IC50 [1] [nM]	Experimental Example 2 proMMP-2 production suppression (% suppression, 10 μM) [2] [%]	other results
Cc1cnc(N2CCN(C(=O)c3ccc(N4C(=O)OC[C@H]4C)cc3S(C)(=O)=O)CC2)c(C)c1 [Example 81, (R)-3-{4-[4-(3,5-dimethylpyridin-2-yl)piperazine-1-carbonyl]-3-methanesulfonylphenyl}-4-methyloxazolidin-2-one]	–	–	articular joint injury score of compound administration group [3, 6]: 4.4 ± 0.4
Cc1cnc(N2CCN(C(=O)c3ccc(N4C(=O)OC[C@H]4C)nc3)CC2)c(C)c1.Cl.Cl [Example 109, (R)-3-{5-[4-(3,5-dimethylpyridin-2-yl)piperazine-1-carbonyl]pyridin-2-yl}-4-methyloxazolidin-2-one 2hydrochloride]	–	–	articular joint injury score of compound administration group [3, 7]: 4.1 ± 0.4
Cc1ccc(C(=O)C2CCN(C(=O)c3ccc(N4CCOC4=O)nc3)CC2)cc1 [Example 42, 3-{5-[4-(4-methylbenzoyl)piperidine-1-carbonyl]pyridin-2-yl}oxazolidin-2-one]	–	–	articular joint injury score of compound administration group [3, 6]: 3.8 ± 0.7
Cc1ccc(N2CCN(C(=O)c3c(F)cc(N4CCOC4=O)cc3F)CC2)c(C)c1 [Example 1, 3-{4-[4-(2,4-dimethylphenyl)piperazine-1-carbonyl]-3,5-difluorophenyl}oxazolidin-2-one]	44	17.4	–
Cc1ccc(N2CCN(C(=O)c3ccc(N4C(=O)OC[C@H]4CO)cc3S(C)(=O)=O)CC2)c(C)c1 [Example 19, (R)-3-{4-[4-(2,4-dimethylphenyl)piperazine-1-carbonyl]-3-methanesulfonylphenyl}-4-hydroxymethyloxazolidin-2-one]	11	22.5	–
